From PMC10377091 (Brain Sciences, 2023)
Like-named read-outs stand apart in the source and are kept apart here.

Experiments:
[1] = system: hiPS-BCECs; test: Cytotoxicity, CellTiter-Glo 2.0 Cell Viability Assay; details: 1% SDS (positive control), 4 h incubation, luminescence; mean ± SEM
Experimental: Cytotoxicity of phoenixin-14 against hiPS-BCECs was evaluated for three concentrations (1, 10, and 100 nMol) after 4 h incubation with untreated (negative control) and 1% Sodium Dodecyl Sulfate (SDS, Carl Roth, Karlsruhe, Germany)-treated (positive control) hiPS-BCECs as controls. After treatment, a CellTiter-Glo® 2.0 Cell Viability Assay (Promega, Mannheim, Germany) was performed according to the manufacturer’s instructions. Luminescence was measured with an Infinite M200 fluorescence reader (Tecan Group, Männedorf, Switzerland).
Cytotoxicity studies were performed in triplicate and three independent biological replicates. Transport studies were performed in duplicate and repeated three times. […] When feasible based on the number of values, data were tested for normality using the Kolmogorov–Smirnov test; otherwise, they were assumed to be non-normally distributed. Results from the toxicity studies were analyzed using Kruskal–Wallis test and significance values were adjusted according to Bonferroni correction regarding multiple testing. To compare the results of the transport studies, an unpaired t-test was applied. Data are presented as mean ± SEM. The level of significance was defined as p < 0.05 (*).

[2] = system: hiPSC-BCECs (brain capillary-like endothelial cells derived from human induced-pluripotent stem cells); set-up: method as in PMID 28344002; details: control substances, previously published experiments in the hiPSC-based BBB model; mean ± SEM; cited from earlier work
[3] = set-up: method as in PMID 34575559; details: in vivo in mice; cited from earlier work
[4] = system: hiPSC-BCECs (brain capillary-like endothelial cells derived from human induced-pluripotent stem cells); test: Transport assay across hiPSC-derived BBB mono-culture model (hiPS-BCEC); assay type: in vitro ADME; details: for clearance value: mean ± SEM; for permeability coefficient (PC): apical to basolateral, 4 h, 37 °C, ELISA
Experimental: Human induced-pluripotent stem cells (hiPSC; IMR90-4, WiCell Research Institute, Madison, WI, USA) were cultured in mTeSRTM1 medium (StemCell Technologies, Vancouver, BC, Canada). The hiPSC-derived brain capillary-like endothelial cell (hiPS-BCEC) BBB model was built as previously described. In brief, using Accutase® solution (Sigma-Aldrich, Saint Louis, MO, USA), hiPSCs were dissociated into single cells and seeded in mTeSRTM1 medium (StemCell Technologies Inc.) including […]-27632 dihydrochloride (Tocris, Bristol, UK) on Matrigel® Growth Factor Reduced (GFR) Basement Membrane Matrix, Phenol Red-free (Corning, Corning, NY, USA) coated 6-well plates at a density of 7.5 × 103 hiPSC/cm^2. […] For the next two days, cells were treated with EC++ medium, consisting of human endothelial-[…], Thermo Fisher Scientific) supplemented with 200 × diluted serum-free B-27TM supplement (Thermo Fisher Scientific), 20 ng/mL hbFGF (PeproTech, Cranbury, NJ, USA), and 10 μM all-trans RA (Sigma-Aldrich). No medium change occurred on day 7. Using Accutase®, cells were seeded in EC++ medium at a density of 1 × 106 hiPSC/cm^2 onto 24-well ThinCert® cell culture inserts, with a pore size of 0.4 μm (Greiner BioOne, Frickenhausen, Germany), coated with 400 μg/mL collagen IV (Sigma-Aldrich) and supplemented with 100 μg/mL fibronectin (Thermo Fisher Scientific). Cells were cultured in EC++ medium for 24 h, followed by treatment with EC medium ([…] hbFGF and RA) for another 24 h, yielding purified hiPS-BCECs. Transport assays were performed in cell culture inserts (24-well format) on an orbital shaker (Edmund Buhler GmbH, Bodelshausen, Germany) at 100 rpm, 37 °C, 95% humidity, and 5% CO2. […] Stock solutions of commercially purchased phoenixin-14 (079-01, Phoenix Pharmaceuticals, Inc., Karlsruhe, Germany,) were diluted with EC medium to the desired concentrations (1 nMol or 10 nMol). In total, 200 μL of the final concentrations of phoenixin-14 were applied to the apical side of the BBB model. The basolateral side was supplied with 800 μL of EC medium. The transport was evaluated with a total incubation time of 4 h. Half-hourly, the basolateral medium was collected and replaced with fresh EC medium. As a control, the substances were incubated on empty collagen IV-/fibronectin-coated inserts to exclude major phoenixin-14 adsorption on the membrane. […] The concentration of phoenixin-14 in the apical and basolateral compartment was measured using a commercially purchased ELISA Kit (EK-079-01, Phoenix Pharmaceuticals). The intra-assay variability was 9.7%. The sensitivity for phoenixin was 0.07 ng/mL, while the linear detection ranged from 0.36 to 3.26 ng/mL (Phoenix Pharmaceuticals). […] Data are presented as mean ± SEM.

Compound: CCCCCCCCCCCCOS(=O)(=O)[O-].[Na+] [SDS, Sodium Dodecyl Sulfate]
- cell viability in comparison to untreated hiPS-BCECs [1]: 0.37 ± 0.02%

Compound: Cn1c(=O)c2c(ncn2C)n(C)c1=O [caffeine]
- permeability coefficient (PC) [2]: 51.06 ± 9.90 µm/min
- clearance value [3]: 1.111e-05 mL/min

Compound: H-DVQPPGLKVWSDPF-NH2 [phoenixin-14]
- passage across the hiPSC-derived BBB model ([4]; 1 and 10 nMol, phoenixin-14 alone, in vitro): did not cross
- clearance value ([4]; 1 nMol phoenixin-14, hiPS-BCEC mono-culture, resulting from PC): 6.83e-07 ± 1.39e-07 mL/min
- permeability coefficient (PC) ([4]; 10 nMol phoenixin-14, hiPS-BCEC mono-culture, experiment 1 of 3): 0.059 µm/min
- permeability coefficient (PC) ([4]; 10 nMol phoenixin-14, hiPS-BCEC mono-culture, experiment 2 of 3): 0.056 µm/min
- permeability coefficient (PC) ([4]; 10 nMol phoenixin-14, hiPS-BCEC mono-culture, experiment 3 of 3): 0.019 µm/min
- clearance value ([4]; 10 nMol phoenixin-14, hiPS-BCEC mono-culture, based on PC): 1.779e-06 ± 8.17e-07 mL/min
